From patent US20110059947A1, “ALPHA 7 NICOTINIC AGONISTS AND ANTIPSYCHOTICS” (Targacept, Inc., priority 2008, published 2011)
Several values for one entry are separate records, joined by “and”; a condition that tells them apart may be missing. Identical values can stand only once.

Key:
[1] = target: T1, 5HT3 receptors (Homo sapiens, UniProt P46098); assay: Functional activation at the human 5HT3 receptor; type: cell-based; conditions: read-out: maximal response, functional activation of human 5HT3 receptor
T1 sequence (P46098 24-478): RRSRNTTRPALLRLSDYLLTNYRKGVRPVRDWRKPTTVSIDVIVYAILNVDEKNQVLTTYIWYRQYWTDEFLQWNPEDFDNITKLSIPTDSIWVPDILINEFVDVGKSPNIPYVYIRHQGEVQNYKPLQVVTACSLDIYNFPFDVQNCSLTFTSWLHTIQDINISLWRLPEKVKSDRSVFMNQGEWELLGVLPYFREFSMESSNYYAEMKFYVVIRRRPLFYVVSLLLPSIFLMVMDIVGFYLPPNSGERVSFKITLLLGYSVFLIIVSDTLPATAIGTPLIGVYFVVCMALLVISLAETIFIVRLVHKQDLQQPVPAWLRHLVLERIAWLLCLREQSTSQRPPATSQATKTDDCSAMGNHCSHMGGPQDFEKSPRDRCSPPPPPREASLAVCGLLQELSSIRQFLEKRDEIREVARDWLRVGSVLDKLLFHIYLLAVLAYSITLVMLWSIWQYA

[2] = target: T1, 5HT3 receptors; assay: 5HT3 receptor radioligand binding, human receptor; conditions: 10 μM
[3] = target: opioid receptor; conditions: read-out: Ki opioid site; dose-response assessment
[4] = system: non-nicotinic receptor classes; assay: Broad receptor selectivity battery (Novascreen); conditions: criterion: inhibition of receptor-selective ligand binding >50% at 10 μM
[5] = system: Sprague-Dawley rats; assay: Apomorphine-induced impairment of pre-pulse inhibition; type: in vivo, rat; conditions: Compound A 0.3 mg/kg s.c., apomorphine 1.0 mg/kg s.c., p<0.001
[6] = target: T2, human α4β2 sub-type (Homo sapiens, UniProt P17787+P43681); assay: Functional activation in Xenopus oocytes (electrophysiology); type: cell-based
T2 construct: expressed in transfected cells; host or cells: Xenopus oocytes

[7] = target: T3, human α4β2 receptors (Homo sapiens, UniProt P17787+P43681); assay: [3H]-(S)-nicotine competition binding in SH-EP1 cellular membranes; conditions: SH-EP1 cells
T3 construct: expressed in transfected cells; host or cells: SH-EP1

[8] = target: T4, sigma site 2 (Homo sapiens, UniProt Q5BJF2); assay: Sigma site 2 binding (Novascreen)
T4 construct: Novascreen

[9] = target: T5, human muscle receptors (Homo sapiens, UniProt P02708+P07510+Q07001); assay: Muscle function (Ca++ flux), TE-671 cells; type: cell-based; conditions: human TE-671 cells, % of nicotine's Emax
T5 construct: expressed in appropriate rat and human cell lines; endogenous in cells

[10] = system: rats; assay: Novel object recognition (NOR) in rats; type: in vivo, rat
Source text: The object recognition model is based on a rodent's spontaneous tendency to explore novel aspects of their environment and this exploratory activity can be an index for memory function (Ennaceur and Delacour, 1988). The NOR test measures the capacity to recognize an object presented on two occasions, some time apart. The test arena consisted of a 17.5×17.5″ clear Plexiglas™ with walls 12″ in height. The arena was enclosed in an opaque, sound-attenuating chamber and the doors (opening to the front side) remained open. […] On the first two days of this sub-acute dosing paradigm, administrations were followed 30 minutes later by an exploratory (habituation) trial (6 minutes) on Day 1 (no objects) and object recognition acquisition trial (3 minutes) on Day 2 (2 of the same objects). On the third day the final OR trial, or recall trial (3 minutes; one familiar, one novel object) was started at either 30 min, 2 h, 6 h, 18 h or 24 h after compound administration. For the recall trial, a video camera was positioned approximately 36″ from the unshielded side of the arena for videotaping of the animals' behaviors. These behaviors were subsequently hand-scored by a blinded observer assessing the time spent exploring a novel (object B) versus a familiar (object A) object during this recall exposure trial. Absolute exploration time for each object was recorded, and a % recognition index was calculated as follows: % RI=[(time investigating novel object)/(total time investigating both novel+familiar objects)] […] Where significant overall effects were found, post-hoc analyses were performed. P<0.05 was considered significant.

[11] = system: human ganglion receptors; assay: Ganglion function (Ca++ flux), SH-SY5Y cells; type: cell-based; conditions: % of nicotine's Emax
[12] = target: T6, 5HT3 receptors (Mus musculus, UniProt P23979); assay: 5HT3 receptor radioligand binding, mouse receptor; conditions: 10 μM
T6 sequence (P23979 24-489): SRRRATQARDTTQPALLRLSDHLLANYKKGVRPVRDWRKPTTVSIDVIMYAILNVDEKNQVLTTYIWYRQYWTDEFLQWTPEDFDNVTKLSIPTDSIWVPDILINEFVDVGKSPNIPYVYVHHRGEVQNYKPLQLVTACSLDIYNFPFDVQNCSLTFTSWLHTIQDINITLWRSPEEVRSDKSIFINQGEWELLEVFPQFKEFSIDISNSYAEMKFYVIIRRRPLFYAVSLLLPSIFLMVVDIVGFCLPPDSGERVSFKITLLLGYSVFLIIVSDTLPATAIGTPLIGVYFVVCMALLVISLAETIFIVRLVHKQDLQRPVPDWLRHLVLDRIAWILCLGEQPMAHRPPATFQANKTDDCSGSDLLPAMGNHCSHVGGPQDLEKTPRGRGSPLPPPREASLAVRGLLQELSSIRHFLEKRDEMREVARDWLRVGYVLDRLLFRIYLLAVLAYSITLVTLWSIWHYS

[13] = system: rat ganglion receptors; assay: Ganglion function (Ca++ flux), PC-12 Shooter cells; type: cell-based; conditions: rat PC-12 Shooter cells, % of nicotine's Emax
[14] = system: th(tk-)/th(tk-) mice; assay: Prepulse inhibition (PPI) and acoustic startle in th(tk-)/th(tk-) and control mice; type: in vivo

**Q.** For `O=C(N[C@@H]1C2CCN(CC2)[C@H]1Cc1cccnc1)c1cc2ccccc2o1` [Compound A, (2S,3R)—N-(2-((3-pyridinyl)methyl)-1-azabicyclo[2.2.2]oct-3-yl)benzofuran-2-carboxamide], which Emax at 100 µM [1] is on record?
**A.** Its Emax at 100 µM is 15%.

**Q.** And the “inhibition of radioligand binding at 5HT3, human receptor” value [2]?
**A.** Its value is 25 % inhibition.

**Q.** What about the Ki [3] of the same compound?
**A.** Its Ki is 13 µM.

**Q.** And the “interactions with other non-nicotinic receptor classes” value [4]?
**A.** The value was “minimal interactions”.

**Q.** And the “PPI deficits induced by apomorphine” value [5]?
**A.** The value was “significantly reversed PPI deficits”.

**Q.** What about the “activation of human α4β2” value [6] of the same compound?
**A.** Its value is “no detectable activation”.

**Q.** What about the “decreases in subsequent control responses to ACh (α4β2)” value [6] of the same compound?
**A.** The value was “no significant decreases”.

**Q.** What about the Ki [7] of the same compound?
**A.** The Ki was 2.8 µM.

**Q.** And the “inhibition of ligand binding, sigma site 2” value ([8]; 10 μM)?
**A.** The value was 79 % inhibition.

**Q.** And the Ki ([8]; dose-response assessment)?
**A.** Its Ki is 13 µM.

**Q.** And the “Muscle Function (Ca++ flux) % nicotine @ 10 uM” value ([9]; 10 uM)?
**A.** Its value is 5 % nicotine and 5 ± 2 % nicotine.

**Q.** What about the “Muscle Function (Ca++ flux) % nicotine @ 100 uM” value ([9]; 100 uM) of the same compound?
**A.** Its value is 12 % nicotine and 12 ± 7 % nicotine.

**Q.** And the “time investigating novel versus familiar object” value ([10]; rats, 0.3 mg/kg, 30 min, 2 h, 6 h and 18 h after final sub-acute (q.d. x3 days) administration)?
**A.** The value was “significantly more time investigating the novel object than the familiar object”.

**Q.** And the “time spent investigating the novel object” value ([10]; rats, 0.3, 1 and 10 mg/kg p.o., 30 minutes after 3rd q.d. administration)?
**A.** Its value is “significantly increased the time spent investigating the novel object”.

**Q.** And the “duration of working memory facilitation after third sub-acute daily administration” value ([10]; young rats, 0.3 mg/kg)?
**A.** The value was “up to 18 hours”.

**Q.** What about the “Ganglion Function (Ca++ flux) % nicotine @ 10 uM” value ([11]; 10 uM) of the same compound?
**A.** Its value is 6 % nicotine and 6 ± 2 % nicotine.

**Q.** And the “Ganglion Function (Ca++ flux) % nicotine @ 100 uM” value ([11]; 100 uM)?
**A.** Its value is 11 % nicotine and 11 ± 1 % nicotine.

**Q.** What about the “inhibition of radioligand binding at 5HT3, mouse receptor” value [12] of the same compound?
**A.** Its value is 59 % inhibition.

**Q.** And the “Ganglion Function (Ca++ flux) % nicotine @ 10 uM” value ([13]; 10 uM)?
**A.** Its value is 11 % nicotine and 11 ± 6 % nicotine.

**Q.** What about the “Ganglion Function (Ca++ flux) % nicotine @ 100 uM” value ([13]; 100 uM) of the same compound?
**A.** Its value is 20 % nicotine and 20 ± 8 % nicotine.

**Q.** And the PPI or startle ([14]; Compound A 0.1 mg/kg given individually)?
**A.** Its PPI or startle is “little effect”.

**Q.** And the PPI ([14]; control (wild type) mice, Compound A)?
**A.** Its PPI is “no effect on control”.

**Q.** What about the startle response ([14]; th(tk-)/th(tk-) mice, Compound A) of the same compound?
**A.** Its startle response is “normalizes startle response”.

**Q.** What about the “deficits in PPI” value ([14]; th(tk-)/th(tk-) mice, Compound A (0.1 and 0.3 mg/kg analyzed)) of the same compound?
**A.** The value was “reverse deficits in PPI”.

**Q.** What about the “PPI, main effect” value ([14]; transgenic th(tk-)/th(tk-) mice, Compound A 0.1 mg/kg alone) of the same compound?
**A.** The value was “no significant main effect”.
